For this experiment, the system named is PAF specific receptor binding site, human platelet membranes. The experiment can be described thus: inhibition of the binding of [3H] N-methylcarbamoyl-PAF to human platelet membranes. As to conditions: trans configuration. The procedure: The compounds of formula (I) inhibit PAF induced functions in both the cellular and tissue levels by changing the PAF binding to its specific receptor site. The ability of a compound of formula (I) to inhibit the PAF binding to its specific receptor binding site on rabbit or human platelet or PMN plasma membranes was measured by a recently developed assay.
The inhibition of ^3 [H]-PAF or ^3 [H]N-methylcarbamoyl-PAF binding to the human or rabbit platelet or PMN plasma membrane by a PAF antagonist of formula (I) was determined by a method employing isotopic labeling and filtration techniques. Generally, a series of Tris buffered solutions of the selected antagonist at predetermined concentrations were prepared. […] Each washed residue was then suspended in 10 ml scintillation solution (Aquasol 2, New England Nuclear, Conn.) and the radioactivity was counted in a Packard Tri-Carb 460CD Liquid Scintillation System. Defining the counts from a test sample as "Total binding with antagonist"; the counts from the control sample C1, as "Total binding C1 "; and the counts from the control sample C2 as "non specific binding C2 ", the percent inhibition of each test antagonist can be determined by the following equations: [formula] […]

Each structure is given as a SMILES string.

Take `CCCOc1c(OCC(O)CN2CCOCC2)cc([C@@H]2CC[C@@H](c3cnc(OC)c(OC)c3)O2)cc1S(=O)(=O)CC(C)O` (stereo partly drawn) [Example 3, trans-2-[3-(2-Hydroxypropyl)sulfonyl-4-n-propoxy-5-(3-1-morpholino-2-hydroxypropoxy)phenyl]-5-[5-(2,3-dimethoxy)pyridyl]tetrahydrofuran]: the “% inhibition of the binding of [3H] Nmethylcarbamoyl-PAF to human platelet membranes” value (3 nM) was 11% and the “% inhibition of the binding of [3H] Nmethylcarbamoyl-PAF to human platelet membranes” value (30 nM) is 39%.

The record behind these values is patent publication US5001123A, “2,5-diaryl tetrahydrofurans and analogs thereof as PAF antagonists” (Merck & Co., Inc., priority 1989, dated 1991).
